Test results taken from patent US9504663B2, “Composition for the treatment of cystic fibrosis” (SciPharm SaRL, priority 2011, dated 2016).
Entries after “also recorded” stand apart in the source; their conditions may differ.

What was measured:
[1] = test system: IB3-1 cells; assay: Treprostinil-induced [3H]cAMP accumulation in IB3-1 cells with or without PDE inhibitors; format: cell-based, human; details: for accumulation of cAMP with PDE3 inhibitors: in experiments
Experimental: IB3-1 cells were plated on 6 well-plates (0.2*10^6 cells/well in FIG. 1; 0.4*10^6 cells in FIG. 2) in complete growth medium (LHC-8+5% FCS). The following day, the adenine nucleotide pool was metabolically labeled by incubation with [3H]adenine (1 μCi/well) in Dulbecco's Modified Eagle Medium (DMEM) containing adenosine deaminase (1 unit/ml) for 4 h. Thereafter the medium was replaced with fresh medium; the cells were stimulated by sole addition of Treprostinil (in logarithmically spaced concentrations ranging from 0.1 to 30 μM) or of Treprostinil in combination with the indicated concentrations of PDE-inhibitors. After an incubation of 30 min, the cells were lysed by the addition of perchloric acid. The formation of [3H]cAMP was determined by sequential chromatography on Dowex 50WX-4 and neutral alumina columns followed by liquid scintillation counting of the eluate. The assay was performed in triplicate. IB3-1 cells were seeded onto PDL-coated wells of 6-well plates (2 to 2.5*10^5 cells/well) in complete growth medium (LHC-8+5% FCS). On the following day, the cellular adenine nucleotide pool was metabolically labelled by incubation with [^3H]adenine (1 μCi/well) in Dulbecco's Modified Eagle Medium (DMEM) in the presence of adenosine deaminase (5 μg/ml) for 4 h. Subsequently, the medium was replaced with fresh DMEM and the formation of cAMP was stimulated by addition of 5 μM forskolin, a direct activator of the adenylyl cyclase, or 10 μM treprostinil in the absence and presence of different concentrations of the following phosphodiesterase (PDE) inhibitors: ibudilast (0.3-1000 μM), Ro-20-1724 (0.03-300 μM), roflumilast (1 nM-10 μM), dipyridamole (0.01-100 μM), aminone (1, 10, 100 μM), anagrelide (1, 10, 100 μM), enoximone (1, 10, 100 μM), milrinone (1, 10, 100 μM) and cilostazol (0.1 to 100 μM) for 20 min at 37° C. […] The formation of [^3H]cAMP was quantified by liquid scintillation counting.

[2] = aerosolised; patient with cystic fibrosis and secondary pulmonary hypertension; cited from earlier work
[3] = test system: IB3-1 cells; assay: Forskolin-triggered [3H]cAMP accumulation in IB3-1 cells with PDE inhibitors; format: cell-based, human; details: 5 μM forskolin
Experimental: IB3-1 cells were seeded onto PDL-coated wells of 6-well plates (2 to 2.5*10^5 cells/well) in complete growth medium (LHC-8+5% FCS). On the following day, the cellular adenine nucleotide pool was metabolically labelled by incubation with [^3H]adenine (1 μCi/well) in Dulbecco's Modified Eagle Medium (DMEM) in the presence of adenosine deaminase (5 μg/ml) for 4 h. Subsequently, the medium was replaced with fresh DMEM and the formation of cAMP was stimulated by addition of 5 μM forskolin, a direct activator of the adenylyl cyclase, or 10 μM treprostinil in the absence and presence of different concentrations of the following phosphodiesterase (PDE) inhibitors: ibudilast (0.3-1000 μM), Ro-20-1724 (0.03-300 μM), roflumilast (1 nM-10 μM), dipyridamole (0.01-100 μM), aminone (1, 10, 100 μM), anagrelide (1, 10, 100 μM), enoximone (1, 10, 100 μM), milrinone (1, 10, 100 μM) and cilostazol (0.1 to 100 μM) for 20 min at 37° C. In some instances, the effect of these inhibitors on basal cAMP accumulation was examined by incubating cells in the absence of any additional stimulus with increasing concentrations of PDE-inhibitors (i.e., dipyridamole, ibudilast and Ro-20-1724 at 1, 10 and 100 μM; roflumilast at and 0.1, 1 and 10 μM of Roflumilast). Concentration-response curves for treprostinil were obtained by adding treprostinil (0.1 to 30 μM) alone or in combination with 100 μM Ro-20-1724, 100 μM ibudilast or 5 μM roflumilast. The reaction performed in triplicate was stopped by adding 2.5% perchloric acid together with 0.1 mM (unlabelled) cAMP. [^3H]cAMP was isolated by sequential chromatography on Dowex 50W-X4 and neutral alumina columns. The formation of [^3H]cAMP was quantified by liquid scintillation counting.

[4] = test system: cystic fibrosis transmembrane conductance regulator/Cl- channel (CFTR); assay: Whole cell patch clamp of treprostinil-induced Cl- currents through CFTR, Example 3; format: cell-based, human; details: for effect on treprostinil-induced CFTR current of adding PDE4 inhibitor: added on top of treprostinil
Experimental: The following human bronchial epithelial cell lines were obtained through ATCC: BEAS-2B (ATCC CRL-9609), NuLi-1 (ATCC CRL-4011), IB3-1 (ATCC CRL-2777), CuFi-1 (ATCC CRL-4013). Cells were propagated using the culture conditions outlined in the ATCC recommendations, e.g., I3B-1 cells were maintained on dishes coated with fibronectin (10 μg/m) rat collagen I (30 μg/ml) and BSA 10 μg/mL) in LHC-8 medium (Gibco) containing 5% fetal calf serum (FCS) at 37° C. in a 5% CO2 humified atmosphere. BEAS-2B cells were maintained at 37° C. in a 5% CO2 humified atmosphere on dishes precoated with collagen IV (60 μg/ml in 0.25% acetic acid) in BEGM medium (Lonza); the GA-1000 (gentamycin-amphotericin B mix) provided with the BEGM kit was not added to the medium. The level of endogenous expression of CFTR was too low to obtain a reliable signal. Accordingly, BEAS-2B cells were transiently transfected with a plasmid driving the expression of human GFP-tagged wild type CFTR by using Lipofectamine Plus® (Invitrogen) according to the instructions of the manufacturer. Cells expressing this GFP-tagged CFTR were identified by fluorescence microscopy and subjected to patch clamp recordings as outlined below. The whole cell patch clamp technique was used for current recordings performed at 22±1.5° C. using an Axoclamp 200B patch clamp amplifier (Axon Instruments). Pipettes had resistances between 1 and 2 MO when filled with the recording pipette solution (composition: 110 mM CsCl, 5 mM EGTA, 2 mM MgCl2, 1 mM K2.ATP, 10 mM Hepes, pH adjusted to 7.2 with CsOH). Voltage-clamp protocols and data acquisition were performed with […] 6.0 software (Axon Instruments). Data were low-pass filtered at 2 kHz (-3 dB) and digitized at 10-20 kHz. Cells were continuously superfused with external solution (composition: 145 mM NaCl, 4.5 mM KCl, 2 mM CaCl2, 1 mM MgCl2, 5 mM glucose, 10 mM Hepes, pH adjusted to 7.4 with NaOH). When indicated, the external solution contained Treprostinil (10 μM) or forskolin (5 μM), switching between solutions was achieved by electronically controlled pressure valves.

[5] = test system: CFTR-wt; assay: Whole cell patch clamp of Cl- current in IB3-1 cells transiently expressing GFP-tagged wild type CFTR; format: cell-based, human
Experimental: The whole cell patch clamp technique was used for current recordings performed at 22±1.5° C. using an Axoclamp 200B patch clamp amplifier (Axon Instruments). Pipettes had resistances between 1 and 2 MΩ when filled with the recording pipette solution (composition: 110 mM CsCl, 5 mM EGTA, 2 mM MgCl2, 1 mM K2.ATP, 10 mM Hepes, pH adjusted to 7.2 with CsOH). […] Data were low-pass filtered at 2 kHz (-3 dB) and digitized at 10-20 kHz. Cells were continuously superfused with external solution (composition: 145 mM NaCl, 4.5 mM KCl, 2 mM CaCl2, 1 mM MgCl2, 5 mM glucose, 10 mM Hepes, pH adjusted to 7.4 with NaOH). When indicated, the external solution contained Treprostinil (10 μM) or forskolin (5 μM), switching between solutions was achieved by electronically controlled pressure valves. IB3-1 cells were grown on dishes (Nunc, 3.5 cm diameter) covered with fibronectin (10 μg/mL) rat collagen I (30 μg/mL) and BSA 10 μg/mL) in LHC-8 medium (Gibco) containing 5% fetal calf serum (FCS). Cells were transiently transfected with a plasmid driving the expression of human GFP-tagged wild type CFTR by using Lipofectamine Plus® (Invitrogen) according to the instructions of the manufacturer. […] A transiently transfected IB3-1 cell expressing GFP-tagged wild type CFTR was selected under fluorescent light and clamped to a holding potential at -40 mV. Depolarization was induced by a voltage step to +60 mV for 50 ms and the current amplitude was recorded. Wash-in of Treprostinil (10 μM final concentration, TP) was initiated at the time point 50 s and terminated at 125 s. Forskolin was washed in at 275 s and was removed at 375 s.

[6] = test system: rabbit erythrocytes; details: cited from earlier work
[7] = test system: human erythrocytes; details: cited from earlier work

O=C1CN2Cc3c(ccc(Cl)c3Cl)N=C2N1 [Anagrelide]
accumulation of cAMP with PDE3 inhibitors [1]: did not induce any accumulation of cAMP

O=C1CCc2cc(OCCCCc3nnnn3C3CCCCC3)ccc2N1 [Cilostazol]
accumulation of cAMP with PDE3 inhibitors [1]: did not induce any accumulation of cAMP

CC#CCC(C)[C@H](O)/C=C/[C@@H]1[C@H]2C/C(=C/CCCC(=O)O)C[C@H]2C[C@H]1O (stereo partly drawn) [Iloprost, 5-{(E)-(1S,5S,6R,7R)-7-hydroxy-6-[(E)-(3S,4RS)-3-hydroxy-4-methyl-1-octen-6-inyl]-bi-cyclo[3.3.0]octan-3-ylidene}pentanoic acid]
pulmonary artery pressure [2]: effective in lowering pulmonary artery pressure

CCCCOc1cc(CC2CNC(=O)N2)ccc1OC (centres unmarked) [RO20-1724]
enhancement of the cAMP accumulation triggered by forskolin [3]: substantially enhanced
relative efficacy, forskolin-triggered cAMP accumulation ([3]; compared with roflumilast): more effective than roflumilast
effect on treprostinil-induced CFTR current of adding PDE4 inhibitor [4]: additional increase of the current

O=C(Nc1c(Cl)cncc1Cl)c1ccc(OC(F)F)c(OCC2CC2)c1 [Roflumilast, 3-(cyclopropylmethoxy)-N-(3,5-dichloropyridin-4-yl)-4-(difluoromethoxy)benzamide]
enhancement of the cAMP accumulation triggered by forskolin [3]: substantially enhanced
relative potency as inhibitor, forskolin-triggered cAMP accumulation [3]: most potent inhibitor
effect on treprostinil-induced CFTR current of adding PDE4 inhibitor [4]: additional increase of the current

CCCCC[C@H](O)CC[C@@H]1[C@H]2Cc3cccc(OCC(=O)[O-])c3C[C@H]2C[C@H]1O.[Na+] [Treprostinil, (1R,2R,3aS,9aS)-[[2,3,3a,4,9,9a-hexahydro-2-hydroxy-1-[(3S)-3-hydroxyoctyl]-1H-benz[f]inden-5-yl]oxy]acetic acid monosodium salt]
activation of the current (CFTR) ([5]; 10 μM Treprostinil, depolarization from −40 mV holding potential to +60 mV, monosodium salt): robust activation; also recorded: can activate CFTR
time for current to decay to basal after washout ([5]; 10 μM treprostinil): ~100 s
activation of CFTR (outward current) ([4]; voltage jumps from −20 to −80 mV): sustained activation of CFTR
receptor-mediated cAMP synthesis and ATP release [6]: stimulate
receptor-mediated cAMP synthesis and ATP release [7]: stimulate

OCCN(CCO)c1nc(N2CCCCC2)c2nc(N(CCO)CCO)nc(N3CCCCC3)c2n1 [dipyridamole]
efficacy in treprostinil-triggered cAMP accumulation ([1]; 10 μM treprostinil): higher efficacy
enhancement of the cAMP accumulation triggered by forskolin [3]: substantially enhanced
relative potency as inhibitor, forskolin-triggered cAMP accumulation [3]: less potent inhibitor
